One assay addresses human PDE1B enzyme (Homo sapiens (Human), UniProt Q01064). Description: IMAP TR-FRET PDE1B enzymatic assay. The assay is classed as biochemical. Particulars: negative log of half-maximal molar inhibitory concentration; 200 nM FAM-cAMP; values given as bins. Put shortly: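 Full-length GST-tagged human PDE1B (250 pg/well) in IMAP BSA buffer with 10 U/ml calmodulin and 2.5 mM CaCl2; compound pre-incubated 5 min at room temperature, then 200 nM (final) FAM-cAMP for 30 min. IMAP binding reagent/Tb added, 1 h; TR-FRET 520/490 ratio read. IC50 from sigmoidal dose-response fit.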
Turning to `Cc1oc2ncnc(NC3(C)CC3)c2c1C(=O)NCc1cnn(-c2cccc(F)c2)c1` [Example 572, N-{[1-(3-Fluorophenyl)-1H-pyrazol-4-yl]methyl}-6-methyl-4-[(1-methylcyclopropyl)amino]furo[2,3-d]pyrimidine-5-carboxamide], the “PDE1b (pIC50)” value is listed as >8.
As to `Cc1oc2ncnc(NC3(C)CC3)c2c1C(=O)N(CCCO)Cc1ccc(F)cc1` [Example 574, N-[(4-Fluorophenyl)methyl]-N-(3-hydroxypropyl)-6-methyl-4-[(1-methylcyclopropyl)amino]furo[2,3-d]pyrimidine-5-carboxamide], the “PDE1b (pIC50)” value is on record as >8.
Regarding `Cc1oc2ncnc(NC3(C)CC3)c2c1C(=O)NCCOc1ccc(F)cc1` [Example 585, N-[2-(4-Fluorophenoxy)ethyl]-6-methyl-4-[(1-methylcyclopropyl)amino]furo[2,3-d]pyrimidine-5-carboxamide], the “PDE1b (pIC50)” value is >8.

Staying with this assay, now noted: negative log of half-maximal molar inhibitory concentration; 200 nM FAM-cAMP; values given as bins; read-out: PDE1b (pIC50) (converted).
Regarding `COc1ccc(CN(CCCO)C(=O)c2c(C)oc3ncnc(NC4(C)CC4)c23)cc1` [Example 573, N-(3-Hydroxypropyl)-N-[(4-methoxyphenyl)methyl]-6-methyl-4-[(1-methylcyclopropyl)amino]furo[2,3-d]pyrimidine-5-carboxamide], the IC50 is 10 to 100 nM.
With `Cc1oc2ncnc(NC3(C)CC3)c2c1C(=O)N(C)Cc1nc2ccc(F)cc2[nH]1` [Example 575, N-[(6-Fluoro-1H-1,3-benzodiazol-2-yl)methyl]-N,6-dimethyl-4-[(1-methylcyclopropyl)amino]furo[2,3-d]pyrimidine-5-carboxamide], the IC50 was 100 to 1000 nM.
As for `COCCN(Cc1cccc(OC)c1)C(=O)c1c(C)oc2ncnc(NC3(C)CC3)c12` [Example 580, N-(2-Methoxyethyl)-N-[(3-methoxyphenyl)methyl]-6-methyl-4-[(1-methylcyclopropyl)amino]furo[2,3-d]pyrimidine-5-carboxamide], the IC50 is 10 to 100 nM.
On to `Cc1oc2ncnc(NC3(C)CC3)c2c1C(=O)N(C)CCc1nc2cc(F)ccc2[nH]1` [Example 583, N-[2-(5-Fluoro-1H-1,3-benzodiazol-2-yl)ethyl]-N,6-dimethyl-4-[(1-methylcyclopropyl)amino]furo[2,3-d]pyrimidine-5-carboxamide], for which the IC50 was 100 to 1000 nM.
The same measure, in the same setting: as for `Cc1oc2ncnc(NC3(C)CC3)c2c1C(=O)NCc1cc2ccc(F)cc2[nH]c1=O` [Example 584, N-[(7-Fluoro-2-oxo-1,2-dihydroquinolin-3-yl)methyl]-6-methyl-4-[(1-methylcyclopropyl)amino]furo[2,3-d]pyrimidine-5-carboxamide], the figure is 10 to 100 nM; as for `COc1ccccc1OC1CN(C(=O)c2c(C)oc3ncnc(NC4(C)CC4)c23)C1` [Example 589, 5-[3-(2-Methoxyphenoxy)azetidine-1-carbonyl]-6-methyl-N-(1-methylcyclopropyl)furo[2,3-d]pyrimidin-4-amine], 10 to 100 nM.
Still for that read-out and setting: the figure for `COc1cccc(OC2CN(C(=O)c3c(C)oc4ncnc(NC5(C)CC5)c34)C2)c1` [Example 590, 5-[3-(3-Methoxyphenoxy)azetidine-1-carbonyl]-6-methyl-N-(1-methylcyclopropyl)furo[2,3-d]pyrimidin-4-amine] is < 10 nM; for `CCOc1ccc(C(C)NC(=O)c2c(C)oc3ncnc(NC4(C)CC4)c23)cc1F` (stereo not shown) [Example 595, N-[1-(4-Ethoxy-3-fluorophenyl)ethyl]-6-methyl-4-[(1-methylcyclopropyl)amino]furo[2,3-d]pyrimidine-5-carboxamide] it is 10 to 100 nM; for `COc1cccc2c1OCCCN(C(=O)c1c(C)oc3ncnc(NC4(C)CC4)c13)C2` [Example 600] it is 10 to 100 nM.
Still for that read-out and setting: as for `COc1ccc(CN(C)C(=O)c2c(C)oc3ncnc(NC4(C)CC4)c23)cc1O` [Example 604, N-[(3-Hydroxy-4-methoxyphenyl)methyl]-N,6-dimethyl-4-[(1-methylcyclopropyl)amino]furo[2,3-d]pyrimidine-5-carboxamide], the figure is 10 to 100 nM.
